pIC50: −log10 of the molar value.
Biological target: human VMAT2 (Homo sapiens, UniProt Q05940)
Test: [3H]-α-DHTBZ radioligand binding in vesicles from human VMAT2-transfected HEK293 cells
Conditions: read-out: IC50 [3H]-α-DHTBZ binding

Sequence of human VMAT2 (Q05940 whole entry): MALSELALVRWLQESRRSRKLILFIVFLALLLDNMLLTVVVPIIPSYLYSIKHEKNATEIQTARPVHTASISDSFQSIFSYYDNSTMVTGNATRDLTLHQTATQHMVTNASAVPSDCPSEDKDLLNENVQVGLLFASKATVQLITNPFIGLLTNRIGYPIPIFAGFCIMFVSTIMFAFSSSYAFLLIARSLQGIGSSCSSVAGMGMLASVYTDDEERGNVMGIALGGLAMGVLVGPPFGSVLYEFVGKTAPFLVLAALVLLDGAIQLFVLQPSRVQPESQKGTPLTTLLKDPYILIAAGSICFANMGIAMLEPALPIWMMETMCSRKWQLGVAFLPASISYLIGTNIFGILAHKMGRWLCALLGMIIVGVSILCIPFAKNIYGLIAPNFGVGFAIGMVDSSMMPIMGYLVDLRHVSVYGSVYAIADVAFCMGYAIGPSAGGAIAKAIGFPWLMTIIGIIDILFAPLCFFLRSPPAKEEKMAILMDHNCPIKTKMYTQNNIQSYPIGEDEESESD

## COc1cc2c(cc1OC)C1CC(=O)C(CC(C)C)CN1CC2 (stereo not shown) [TBZ, Tetrabenazine]
  pIC50: 7.72
